In one experiment the target is MYPT1 binding to PP1. The experiment in a line: MYPT1/PP1 binding assay in presence of increasing PIP peptide concentrations. As to conditions: read-out: KI for inhibition of MYPT1 binding to PP1. How it is done:
(§1) His-tagged PP1 diluted in PBS-T was incubated in nickel coated wells for 1 hour and washed three times with PBS-T. Wells were incubated with increasing concentrations of biotinylated PIP peptides or amino acids 1-299 of MYPT1. Wells were washed again three times with PBS-T and incubated with streptavidin conjugated to Alexa Fluor 488 for 1 hour. Wells were washed as previously and the plate was read for fluorescence (Ex:480 nm, Em: 510 nm).
The binding assay with MYPT1 was repeated in the presence of increasing concentrations of PIP peptides to determine the competition between MYPT1 and the peptides.

The next experiment deals with occludin. The experiment in a line: Western blot for occludin in lysates of Caco-2 monolayers. The conditions noted are these: Caco-2 monolayers treated for 90 min. It is filed as cell-based, human. The protocol:
(§2) Lysates of Caco-2 monolayers prepared using 200 μL RIPA buffer along with 10 μL protease and phosphatase inhibitors per well were placed in 1.5 mL Eppendorf tubes and centrifuged at 4000×g for 10 min with supernatants being removed and stored at −80° C. until separation using a 12% SDS-PAGE gel. Protein samples were mixed 1:1 with loading buffer and denatured by heating at 95° C. for 5 min with 20 μL being loaded for analysis. Separated proteins were transferred onto a nitrocellulose membrane at 30 V for 75 min. Membranes were blocked with 5% bovine serum albumin in TBS-T for 2 h prior to an overnight incubation at 4° C. with primary antibodies diluted in TBS-T. Membranes were thrice washed with TBS-T and then incubated with fluorescent-tagged secondary antibodies at room temperature for 2 h. Membranes were thrice washed with TBS-T and analysed using a Licor imaging system.
For orientation: A western blot detects proteins with antibodies after separation by electrophoresis.

Experiment [1] relates to Caco-2 monolayers. The experiment in a line: TEER of Caco-2 monolayers after apical PIP peptide. It is filed as cell-based, human. As to conditions: 5 mM peptide for 180 min, then washout, 90 min recovery.
The subject of experiment [2] is myosin light chain (MLC) phosphorylation. The experiment in a line: Western blot, ratio of pMLC to total MLC in Caco-2 lysates. It counts as cell-based, human. The conditions noted are these: 5 mM peptide, Caco-2 monolayers. The protocol: as §2
The test system of experiment [3] is Caco-2 monolayers. The experiment in a line: TEER of Caco-2 monolayers after apical PIP peptide. It counts as cell-based, human. The conditions noted are these: for TEER % of initial baseline at time of washout: 5 mM peptide for 180 min, Caco-2; for Effect on TEER compared to control (FIG. 1): 5 mM peptide, Caco-2 monolayer, one-way ANOVA with bonferroni post-test; for TEER reduced to % of baseline: 5 mM applied to apical surface of Caco-2 monolayers. The protocol:
An immortalized human intestinal epithelial cell line (Caco-2) was maintained in DMEM/F12 (Gibco, Paisley, UK) supplemented with 10% FBS, 2 mM L-glutamine (Gibco) 100 U/mL penicillin and 100 μg/mL streptomycin (Gibco). Caco-2 cells were seeded at a density of 7×10^4/well on Transwell™ (Corning, NY) polyester membrane filters (12 mm diameter, 0.4 μm pore size). Feeding with fresh media (Life Technologies, Paisley, UK) was carried out every second day. Caco-2 monolayers with trans-epithelial electrical resistance (TEER) >350 Ω·cm^2 were used for these studies; such TEER values as measured using fixed paddle electrodes and a voltohmeter (World Precision Instruments, UK), were typically achieved between days 15-18 following seeding on Transwell™ filters.
Apical to basal flux of 10 mg/mL 4 kDa fluorescent dextran (Sigma) was performed to assess PIP peptide impact on paracellular permeability. Apical (200 μL) and basal (500 μL) compartment media were replaced with fresh HBSS and allowed to equilibrate for 30 min when TEER measurements were obtained to ensure monolayer integrity. After apical application of the fluorescent dextra the basal compartment volume was collected at set times (typically 0, 15, 30 60, 90, 120 and 180 min) and replaced with fresh HBSS each time. Apical and basal compartment fluorescence was determined using a Fluorostar Omega microplate reader (BMG Labtech, Ortenburg, Germany). After 3 h, the apical compartment fluorescent dextran/peptide solution was removed and replaced with PBS and TEER values were recorded for a further 30 min to monitor monolayer recovery. TEER values were calculated by subtracting blank filter readings and normalized as a percentage of the initial TEER value for that monolayer.

For a further experiment, the target named is PP1 (Homo sapiens, UniProt P62140). The experiment in a line: Binding assay of biotinylated peptides or MYPT1 1-299 to immobilised His-tagged PP1. The protocol: as §1
PP1, sequence (P62140 whole entry): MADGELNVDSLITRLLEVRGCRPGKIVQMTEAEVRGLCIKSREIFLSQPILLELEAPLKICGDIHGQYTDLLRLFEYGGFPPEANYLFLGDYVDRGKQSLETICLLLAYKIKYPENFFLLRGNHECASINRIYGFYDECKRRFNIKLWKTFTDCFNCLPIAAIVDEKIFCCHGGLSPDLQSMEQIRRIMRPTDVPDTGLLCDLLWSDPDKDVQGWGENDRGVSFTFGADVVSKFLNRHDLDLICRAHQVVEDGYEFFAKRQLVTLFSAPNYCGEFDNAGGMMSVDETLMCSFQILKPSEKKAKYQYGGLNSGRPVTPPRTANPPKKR

The results in this text go back to patent US12692290B2, “Modulators of tight junction permeability” (The University of Bath, priority 2020, dated 2026).

Several values for one entry are separate records, joined by “and”; a condition that tells them apart may be missing. Equal entries are not always repeated. Where two headings read alike, the source gives them in different places. Where a SMILES comes first, the peptide text is derived from it. [ ]: non-standard residue; d: D form.

For orientation: Ki means a measure of affinity in units of concentration, obtained from inhibition or displacement. A word on the Kd: it is a measure of binding affinity in units of concentration. As to `CC(C)[C@@H](NC(=O)[C@@H](CCCCN)NC(=O)[C@@H](Cc1ccccc1)NC(=O)[C@@H](CCCNC(=N)N)NC(=O)[C@H](N)CCCNC(=N)N)C(=O)N[C@H](CCCCN)C(=O)N[C@@H](C(=O)N[C@H](CCCCN)C(=O)N[C@H](CCCCN)C(=O)N[C@H](CCCNC(=N)N)C(=O)N[C@H](CCCCN)C(N)=O)[C@H](C)O` [PIP250, H-rrfkvktkkrk-NH2, reference compound] (H-[dR][dR][dF][dK][dV][dK][dT][dK][dK][dR][dK]-NH2), at MYPT1 binding to PP1, the Ki amounted to 155 µM. The “occludin level % of control” value in the experiment with occludin stood at 65.8%. For the same molecule, the “TEER % of baseline 90 min after washout” value in the experiment with Caco-2 monolayers [1] came out at 54%. In experiment [2], the “ratio of pMLC to MLC compared to untreated control” value (shortened to “ratio of pMLC to MLC”) is listed as “significantly increased”. Further, in the experiment with Caco-2 monolayers [3], the “TEER % of initial baseline at time of washout” value (shortened to “TEER % of initial baseline”) was ~ 50% and 49%; the “Effect on TEER compared to control (FIG. 1)” value is given as “significantly different from control”. Binding on PP1 was characterised by a dissociation constant (Kd) of 610 µM.
On to `CC(C)[C@@H](NC(=O)[C@@H](CCCCN)NC(=O)[C@@H](C)NC(=O)[C@@H](CCCNC(=N)N)NC(=O)[C@H](N)CCCNC(=N)N)C(=O)N[C@H](CCCCN)C(=O)N[C@@H](C(=O)N[C@H](CCCCN)C(=O)N[C@H](CCCCN)C(=O)N[C@H](CCCNC(=N)N)C(=O)N[C@H](CCCCN)C(N)=O)[C@H](C)O` [PIP251, H-rrakvktkkrk-NH2] (H-[dR][dR][dA][dK][dV][dK][dT][dK][dK][dR][dK]-NH2), for which the “occludin level % of control” value in the experiment on occludin was 84.1%. Moreover, the “TEER % of baseline 90 min after washout” value with Caco-2 monolayers [1] is 94%. Also, the “ratio of pMLC to MLC” value in experiment [2] is recorded as “increased the ratio of pMLC to MLC, however to a lesser extent than the parent PIP250”. In the experiment with Caco-2 monolayers [3], the “TEER reduced to % of baseline” value was determined as 62.7%, the “TEER % of initial baseline” value is listed as 58% and the “Effect on TEER compared to control (FIG. 1)” value is “significantly different from control”. For the same molecule, the Kd on PP1 stood at 1280 µM.
Regarding `C[C@H](O)[C@@H](NC(=O)[C@@H](CCCCN)NC(=O)[C@@H](C)NC(=O)[C@@H](CCCCN)NC(=O)[C@@H](Cc1ccccc1)NC(=O)[C@@H](CCCNC(=N)N)NC(=O)[C@H](N)CCCNC(=N)N)C(=O)N[C@H](CCCCN)C(=O)N[C@H](CCCCN)C(=O)N[C@H](CCCNC(=N)N)C(=O)N[C@H](CCCCN)C(N)=O` [PIP252, H-rrfkaktkkrk-NH2] (H-[dR][dR][dF][dK][dA][dK][dT][dK][dK][dR][dK]-NH2), the “occludin level % of control” value in the experiment on occludin came out at 61.4%. In the experiment on Caco-2 monolayers [1], the “TEER % of baseline 90 min after washout” value stood at 70%. For the same molecule, in experiment [2], the “ratio of pMLC to MLC” value is “increased the ratio of pMLC to MLC, however to a lesser extent than the parent PIP250”. Besides, in the experiment on Caco-2 monolayers [3], the “TEER reduced to % of baseline” value is recorded as 66%, the “TEER % of initial baseline” value is listed as 55% and the “Effect on TEER compared to control (FIG. 1)” value was “significantly different from control”. Also, the affinity at PP1, expressed as Kd, was 724 µM.
On to `C[C@H](O)[C@@H](NC(=O)[C@@H](CCCCN)NC(=O)[C@@H](CC(=O)O)NC(=O)[C@@H](CCCCN)NC(=O)[C@@H](Cc1ccccc1)NC(=O)[C@@H](CCCNC(=N)N)NC(=O)[C@H](N)CCCNC(=N)N)C(=O)N[C@H](CCCCN)C(=O)N[C@H](CCCCN)C(=O)N[C@H](CCCNC(=N)N)C(=O)N[C@H](CCCCN)C(N)=O` [PIP254, H-rrfkdktkkrk-NH2] (H-[dR][dR][dF][dK][dD][dK][dT][dK][dK][dR][dK]-NH2), for which the “ratio of pMLC to MLC” value in experiment [2] was “did not significantly increase”. In the experiment on Caco-2 monolayers [3], the “TEER reduced to % of baseline” value came out at 85% and the “Effect on TEER compared to control (FIG. 1)” value was “not significant”.
On the same counts, the results for `CC(C)[C@@H](NC(=O)[C@@H](CCCCN)NC(=O)[C@@H](CC(=O)O)NC(=O)[C@@H](CCCNC(=N)N)NC(=O)[C@H](N)CCCNC(=N)N)C(=O)N[C@H](CCCCN)C(=O)N[C@@H](C(=O)N[C@H](CCCCN)C(=O)N[C@H](CCCCN)C(=O)N[C@H](CCCNC(=N)N)C(=O)N[C@H](CCCCN)C(N)=O)[C@H](C)O` [PIP253, H-rrdkvktkkrk-NH2] (H-[dR][dR][dD][dK][dV][dK][dT][dK][dK][dR][dK]-NH2) are “did not significantly increase”, 88% and “not significant”.

B1: MYPT11-299: amino acids 1-299 of MYPT1 (protein, UniProt O14974 1-299, looked up, fragment)
chain: MKMADAKQKRNEQLKRWIGSETDLEPPVVKRQKTKVKFDDGAVFLAACSSGDTDEVLKLLHRGADINYANVDGLTALHQACIDDNVDMVKFLVENGANINQPDNEGWIPLHAAASCGYLDIAEFLIGQGAHVGAVNSEGDTPLDIAEEEAMEELLQNEVNRQGVDIEAARKEEERIMLRDARQWLNSGHINDVRHAKSGGTALHVAAAKGYTEVLKLLIQAGYDVNIKDYDGWTPLHAAAHWGKEEACRILVDNLCDMEMVNKVGQTAFDVADEDILGYLEELQKKQNLLHSEKRDKKS
B1: the Kd with PP1 (derived from binding curves, read-out: KD for binding to PP1) is 0.05 µM; with PP1 (same assay, read-out: KD for binding to PP1), 0.049 µM.
